Source: patent US20230407373A1 (priority 2020, published 2023)
Entries after “also recorded” stand apart in the source; their conditions may differ. Like-named read-outs stand apart in the source and are kept apart here.

Legend:
Assay type in all cases: binding
HCoV-OC43 gRNA and sgRNA = conditions: for target (unweighted spectral count): OC43 Probe II, infected cells; for target (spectral count) / background (spectral count): type s_36_m, Probe II; for target (spectral count): HCoV-OC43-infected HCT-8 cells; for background (spectral count): uninfected-probe control
[1] = tested on: SARS-CoV-2 gRNA and sgRNAs; conditions: for target (unweighted spectral count in RNP capture): Probe II capture, LC-MS/MS LFQ; for background (unweighted spectral count in control): no-probe control pull-down, used as background for Probe II; for back-ground (unweighted spectral count of the protein in the control experiment): protein background of the control (e.g. no-probe) experiment
SARS-CoV-2 gRNA = conditions: for target (unweighted spectral count of the protein in the RNP capture): LC-MS/MS, Probe I sample (first 199 lines of Table 2); for target (unweighted spectral count in RNP capture): Probe I capture, LC-MS/MS LFQ; for background (unweighted spectral count in control): no-probe control pull-down, used as background for Probe I
gRNA of HCoV-OC43 = conditions: for target (spectral count) / background (spectral count): type g_36_m, 36 hpi, Probe I; for target (spectral count): HCoV-OC43-infected HCT-8 cells; for background (spectral count): uninfected-probe control
[2] = 24 hpi (type n_24_v), tested against no-probe control
[3] = type n_48_v, 48 hpi, OC43 Probe II capture on infected cells
[4] = type n_48_v, 48 hpi, no-probe control on infected cells
[5] = type n_48_v: 48 hours post-infection, infected cells, OC43 Probe I, unweighted spectral count
[6] = type n_48_v: 48 hours post-infection, no-probe control on infected cells
[7] = 24 hpi, type n_24_v, tested against no-probe control, FDR<10%
[8] = 36 hpi, type n_36_v, tested against no-probe control, FDR<10%
[9] = 12 hpi (type n_12_v), tested against no-probe control

Substance	target (unweighted spectral count, OC43 Probe II) (HCoV-OC43 gRNA and sgRNA; [3])	background (unweighted spectral count, no-probe control) (HCoV-OC43 gRNA and sgRNA; [4])	target (unweighted spectral count in RNP capture) ([1]; […])	background (unweighted spectral count in control) [1]	target (unweighted spectral count of the protein in the RNP capture) (SARS-CoV-2 gRNA)	target (spectral count, OC43 Probe I RNP capture) (gRNA of HCoV-OC43; [5])	background (spectral count, no-probe control) (gRNA of HCoV-OC43; [6])	target (unweighted spectral count, OC43 Probe II capture) (HCoV-OC43 gRNA and sgRNA; [8])	target (unweighted spectral count) (HCoV-OC43 gRNA and sgRNA; [9])	other results
DHX9: host protein, UniProt Q08211	31	4	11	1	15	24	4			target (unweighted spectral count) (HCoV-OC43 gRNA and sgRNA; [2]): 13; target (spectral count) (HCoV-OC43 gRNA and sgRNA; 36 hpi): 27; background (spectral count) (HCoV-OC43 gRNA and sgRNA; 36 hpi): 3
EIF4H: host protein, UniProt Q15056	9	1	31	1	25	9	1	8		target (unweighted spectral count, OC43 Probe II capture) (HCoV-OC43 gRNA and sgRNA; [7]): 5; target (spectral count) (HCoV-OC43 gRNA and sgRNA; 36 hpi): 8; background (spectral count) (HCoV-OC43 gRNA and sgRNA; 36 hpi): 1; enrichment in SARS-CoV-2 Probe II RNP capture [1]: enriched; also recorded: found in the SARS-CoV-2 experiments; enrichment in SARS-CoV-2 Probe I RNP capture (SARS-CoV-2 gRNA): enriched; also recorded: found in the SARS-CoV-2 experiments; target (spectral count) (gRNA of HCoV-OC43): 8; background (spectral count) (gRNA of HCoV-OC43): 1
ELAVL1: host protein, UniProt Q15717	36	2	74	1	77	50	2	40	9	target (unweighted spectral count) (HCoV-OC43 gRNA and sgRNA; [2]): 17; target (spectral count) (HCoV-OC43 gRNA and sgRNA; 36 hpi): 40; background (spectral count) (HCoV-OC43 gRNA and sgRNA; 36 hpi): 7; enrichment in SARS-CoV-2 Probe II RNP capture [1]: found in the SARS-CoV-2 experiments; enrichment in SARS-CoV-2 Probe I RNP capture (SARS-CoV-2 gRNA): found in the SARS-CoV-2 experiments; target (spectral count) (gRNA of HCoV-OC43): 38; background (spectral count) (gRNA of HCoV-OC43): 6
EZR										target (unweighted spectral count in RNP capture) (SARS-CoV-2 gRNA): 5; background (unweighted spectral count in control) (SARS-CoV-2 gRNA): 1
FAM98A	5	1			7			4		
FXR1	9	1	47	1	9			5		
G3BP1			54	1	55			8	5	target (unweighted spectral count, OC43 Probe II capture) (HCoV-OC43 gRNA and sgRNA; [7]): 5
GAPDM					7					
HNRNPAB	27	2	44	1	44	37	2	21	10	
HNRNPK: host protein, UniProt P61978	63	8	52	1		64	8	66		target (unweighted spectral count) (HCoV-OC43 gRNA and sgRNA; [2]): 28; target (spectral count) (HCoV-OC43 gRNA and sgRNA; 36 hpi): 66; background (spectral count) (HCoV-OC43 gRNA and sgRNA; 36 hpi): 12; target (spectral count) (gRNA of HCoV-OC43): 65; background (spectral count) (gRNA of HCoV-OC43): 16
HNRNPU	72	8		3	75	80	8	69	24	target (unweighted spectral count) (HCoV-OC43 gRNA and sgRNA; [2]): 40
HSPB1										target (unweighted spectral count in RNP capture) (SARS-CoV-2 gRNA): 5; background (unweighted spectral count in control) (SARS-CoV-2 gRNA): 1
KHORBS1					19					
MRPL28: host protein, UniProt Q13084	7	1			12	10	1			target (spectral count) (gRNA of HCoV-OC43): 13; background (spectral count) (gRNA of HCoV-OC43): 1
NPM1			17	1	13				4	target (unweighted spectral count, OC43 Probe II capture) (HCoV-OC43 gRNA and sgRNA; [7]): 7
PCBP1				2	12			16	8	target (unweighted spectral count) (HCoV-OC43 gRNA and sgRNA; [2]): 8
PPIA	12	1				10	1	13		back-ground (unweighted spectral count of the protein in the control experiment) ([1]; […]): 10
PTBP1: host protein, UniProt P26599	43	5			108			61	17	target (unweighted spectral count) (HCoV-OC43 gRNA and sgRNA; [2]): 33; target (spectral count) (HCoV-OC43 gRNA and sgRNA; 36 hpi): 61; background (spectral count) (HCoV-OC43 gRNA and sgRNA; 36 hpi): 12
RPL22L1					8				5	
SRSF1			8	1						background (unweighted spectral count, no-probe control) (HCoV-OC43 gRNA and sgRNA): 1; target (unweighted spectral count, OC43 Probe II capture) (HCoV-OC43 gRNA and sgRNA): 14; target (unweighted spectral count, OC43 Probe II) (HCoV-OC43 gRNA and sgRNA): 20; background (spectral count, no-probe control) (gRNA of HCoV-OC43): 1; target (spectral count, OC43 Probe I RNP capture) (gRNA of HCoV-OC43): 17
VIM					16					target (unweighted spectral count of the protein in the RNP capture experiment) ([1]; […], LC-MS/MS label-free quantification, probe pool not given): 17; back-ground (unweighted spectral count of the protein in the control experiment) ([1]; […]): 4
YP_009725304.1										target (unweighted spectral count in RNP capture) (SARS-CoV-2 gRNA): 5; background (unweighted spectral count in control) (SARS-CoV-2 gRNA): 1
